Source: patent publication US20040166148A1, “Transdermal therapeutic delivery systems with a butenolide” (priority 2003, published 2004)

Assay: Storage stability of drug solutions: N-oxide content by ion pair reversed phase HPLC
Assay type: physicochemical
Details: solutions stored for 7 days at 40° C.; formulation employing levulinic acid

## CC(=O)CCC(=O)O [levulinic acid]
  N-oxide content of the formulation: below 0.06%
